ChEMBL document CHEMBL3822432, “Antibacterial and anticancer activity of a series of novel peptides incorporating cyclic tetra-substituted C(α) amino acids” (Bioorg Med Chem, 2016)
Converted amounts (≈) assume the structure as drawn. Non-standard residues stand in square brackets, D forms with d. Residues, ends and D or L forms follow the SMILES beside them. ξ: configuration not given here. Ac6c = NC1(C(=O)O)CCCCC1; Ac5c = NC1(C(=O)O)CCCC1; ξOrn = NCCCC(N)C(=O)O; ξDab = NCCC(N)C(=O)O; ξDap = NCC(N)C(=O)O

Key:
[1] = tested on: Mycobacterium tuberculosis; test: Antibacterial activity against rifampin/isoniazid-resistant Mycobacterium tuberculosis CSU 45 SRI 1377 by two fold serial dilution method; format: functional
[2] = tested on: Mycobacterium tuberculosis; test: Antibacterial activity against ofloxacin-resistant Mycobacterium tuberculosis by two fold serial dilution method; format: functional

| SMILES | MIC [1] | MIC [2] |
| --- | --- | --- |
| CC(=O)NCC(=O)N[C@@H](Cc1ccccc1)C(=O)NC1(C(=O)NCC(=O)NC2(C(=O)N[C@@H](CCCNC(=N)N)C(=O)NC3(C(=O)NCC(=O)NC4(C(=O)N[C@@H](Cc5ccccc5)C(=O)NC5(C(=O)NCC(=O)NC6(C(=O)NCC(=O)N[C@@H](CCCNC(=N)N)C(=O)NC7(C(=O)N[C@@H](CCCNC(=N)N)C(=O)N[C@@H](CCCNC(=N)N)C(=O)N[C@@H](CCCNC(=N)N)C(=O)N[C@@H](CCCNC(=N)N)C(N)=O)CCCC7)CCCC6)CCCC5)CCCC4)CCCC3)CCCC2)CCCC1 (Ac-GF[Ac5c]G[Ac5c]R[Ac5c]G[Ac5c]F[Ac5c]G[Ac5c]GR[Ac5c]RRRR-NH2) | > 43 µM | > 43 µM |
| CC(=O)NCC(=O)N[C@@H](Cc1ccccc1)C(=O)NC1(C(=O)NCC(=O)NC2(C(=O)NC(CN)C(=O)NC3(C(=O)NCC(=O)NC4(C(=O)N[C@@H](Cc5ccccc5)C(=O)NC5(C(=O)NCC(=O)NC6(C(=O)NCC(=O)NC(CN)C(=O)NC7(C(=O)NC(CN)C(=O)NC(CN)C(=O)NC(CN)C(=O)NC(CN)C(N)=O)CCCCC7)CCCCC6)CCCCC5)CCCCC4)CCCCC3)CCCCC2)CCCCC1 (some centres undefined) (Ac-GF[Ac6c]G[Ac6c][ξDap][Ac6c]G[Ac6c]F[Ac6c]G[Ac6c]G[ξDap][Ac6c][ξDap][ξDap][ξDap][ξDap]-NH2) | 49.3 µM (≈ 100 µg/mL) | 49.3 µM (≈ 100 µg/mL) |
| CC(=O)N[C@@H](CCCCN)C(=O)N[C@@H](CCCCN)C(=O)N[C@@H](CCCCN)C(=O)N[C@@H](CCCCN)C(=O)NCC(=O)N[C@@H](Cc1ccccc1)C(=O)NC1(C(=O)NCC(=O)NC2(C(=O)N[C@@H](CCCCN)C(=O)NC3(C(=O)NCC(=O)NC4(C(=O)N[C@@H](Cc5ccccc5)C(=O)NC5(C(=O)NCC(=O)NC6(C(=O)NCC(=O)N[C@@H](CCCCN)C(=O)NC7(C(N)=O)CCCCC7)CCCCC6)CCCCC5)CCCCC4)CCCCC3)CCCCC2)CCCCC1 (Ac-KKKKGF[Ac6c]G[Ac6c]K[Ac6c]G[Ac6c]F[Ac6c]G[Ac6c]GK[Ac6c]-NH2) | 10.9 µM (≈ 25 µg/mL) | 5.47 µM (≈ 12.5 µg/mL) |
| CC(=O)NCC(=O)N[C@@H](Cc1ccccc1)C(=O)NC1(C(=O)NCC(=O)NC2(C(=O)NC(CCCN)C(=O)NC3(C(=O)NCC(=O)NC4(C(=O)N[C@@H](Cc5ccccc5)C(=O)NC5(C(=O)NCC(=O)NC6(C(=O)NCC(=O)NC(CCCN)C(=O)NC7(C(=O)NC(CCCN)C(=O)NC(CCCN)C(=O)NC(CCCN)C(=O)NC(CCCN)C(N)=O)CCCCC7)CCCCC6)CCCCC5)CCCCC4)CCCCC3)CCCCC2)CCCCC1 (some centres undefined) (Ac-GF[Ac6c]G[Ac6c][ξOrn][Ac6c]G[Ac6c]F[Ac6c]G[Ac6c]G[ξOrn][Ac6c][ξOrn][ξOrn][ξOrn][ξOrn]-NH2) | 11.4 µM (≈ 25 µg/mL) | 11.4 µM (≈ 25 µg/mL) |
| CC(=O)NCC(=O)N[C@@H](Cc1ccccc1)C(=O)NC1(C(=O)NCC(=O)NC2(C(=O)N[C@@H](CCCCN)C(=O)N[C@@H](CCCCN)C(=O)NC3(C(=O)NCC(=O)NC4(C(=O)N[C@@H](Cc5ccccc5)C(=O)NC5(C(=O)NCC(=O)NC6(C(=O)NCC(=O)N[C@@H](CCCCN)C(=O)N[C@@H](CCCCN)C(=O)NC7(C(=O)N[C@@H](CCCCN)C(=O)N[C@@H](CCCCN)C(=O)N[C@@H](CCCCN)C(=O)N[C@@H](CCCCN)C(N)=O)CCCCC7)CCCCC6)CCCCC5)CCCCC4)CCCCC3)CCCCC2)CCCCC1 (Ac-GF[Ac6c]G[Ac6c]KK[Ac6c]G[Ac6c]F[Ac6c]G[Ac6c]GKK[Ac6c]KKKK-NH2) | 4.92 µM (≈ 12.5 µg/mL) | 4.92 µM (≈ 12.5 µg/mL) |
| CC(=O)NCC(=O)N[C@@H](Cc1ccccc1)C(=O)NC1(C(=O)NCC(=O)NC2(C(=O)N[C@@H](CCCCN)C(=O)NC3(C(=O)NCC(=O)NC4(C(=O)N[C@@H](Cc5ccccc5)C(=O)NC5(C(=O)NCC(=O)NC6(C(=O)NCC(=O)N[C@@H](CCCCN)C(=O)NC7(C(=O)N[C@@H](CCCCN)C(=O)N[C@@H](CCCCN)C(=O)N[C@@H](CCCCN)C(=O)N[C@@H](CCCCN)C(N)=O)CCCC7)CCCC6)CCCC5)CCCC4)CCCC3)CCCC2)CCCC1 (Ac-GF[Ac5c]G[Ac5c]K[Ac5c]G[Ac5c]F[Ac5c]G[Ac5c]GK[Ac5c]KKKK-NH2) | 11.4 µM (≈ 25 µg/mL) | 22.9 µM (≈ 49.9 µg/mL) |
| CC(=O)NCC(=O)N[C@H](Cc1ccccc1)C(=O)NC1(C(=O)NCC(=O)N2C(C(=O)N[C@@H](CCCCN)C(=O)NC3(C(=O)NCC(=O)N4C(C(=O)N[C@@H](Cc5ccccc5)C(=O)NC5(C(=O)NCC(=O)N6C(C(=O)NCC(=O)N[C@@H](CCCCN)C(=O)N7C(C(=O)N[C@H](CCCCN)C(=O)N[C@H](CCCCN)C(=O)N[C@H](CCCCN)C(=O)N[C@H](CCCCN)C(N)=O)CC8CCCCC87)CC7CCCCC76)CCCCC5)CC5CCCCC54)CCCCC3)CC3CCCCC32)CCCCC1 (stereo in doubt) | 20.9 µM (≈ 50 µg/mL) | 20.9 µM (≈ 50 µg/mL) |
| CC(=O)NCC(=O)N[C@@H](Cc1ccccc1)C(=O)NC1(C(=O)NCC(=O)NC2(C(=O)N[C@@H](CCCCN)C(=O)NC3(C(=O)NCC(=O)NC4(C(=O)N[C@@H](Cc5ccccc5)C(=O)NC5(C(=O)NCC(=O)NC6(C(=O)NCC(=O)N[C@@H](CCCCN)C(=O)NC7(C(=O)N[C@@H](CCCCN)C(=O)N[C@@H](CCCCN)C(=O)N[C@@H](CCCCN)C(=O)N[C@@H](CCCCN)C(N)=O)CCCC7)CCCCC6)CCCC5)CCCCC4)CCCC3)CCCCC2)CCCC1 (Ac-GF[Ac5c]G[Ac6c]K[Ac5c]G[Ac6c]F[Ac5c]G[Ac6c]GK[Ac5c]KKKK-NH2) | 11.2 µM (≈ 25 µg/mL) | 11.2 µM (≈ 25 µg/mL) |
| CC(=O)NCC(=O)N[C@@H](Cc1ccccc1)C(=O)NC1(C(=O)NCC(=O)NC2(C(=O)N[C@@H](CCCNC(=N)N)C(=O)NC3(C(=O)NCC(=O)NC4(C(=O)N[C@@H](Cc5ccccc5)C(=O)NC5(C(=O)NCC(=O)NC6(C(=O)NCC(=O)N[C@@H](CCCNC(=N)N)C(=O)NC7(C(=O)N[C@@H](CCCNC(=N)N)C(=O)N[C@@H](CCCNC(=N)N)C(=O)N[C@@H](CCCNC(=N)N)C(=O)N[C@@H](CCCNC(=N)N)C(N)=O)CCCCC7)CCCCC6)CCCCC5)CCCCC4)CCCCC3)CCCCC2)CCCCC1 (Ac-GF[Ac6c]G[Ac6c]R[Ac6c]G[Ac6c]F[Ac6c]G[Ac6c]GR[Ac6c]RRRR-NH2) | 10.2 µM (≈ 25 µg/mL) | 40.8 µM (≈ 99.9 µg/mL) |
| CC(=O)NCC(=O)N[C@@H](Cc1ccccc1)C(=O)NC1(C(=O)NCC(=O)N2Cc3ccccc3CC2C(=O)N[C@H](CCCCN)C(=O)NC2(C(=O)NCC(=O)N3Cc4ccccc4CC3C(=O)N[C@H](Cc3ccccc3)C(=O)NC3(C(=O)NCC(=O)N4Cc5ccccc5CC4C(=O)NCC(=O)N[C@H](CCCCN)C(=O)N4Cc5ccccc5CC4C(=O)N[C@H](CCCCN)C(=O)N[C@H](CCCCN)C(=O)N[C@H](CCCCN)C(=O)N[C@H](CCCCN)C(N)=O)CCCCC3)CCCCC2)CCCCC1 (some centres undefined) | 20.7 µM (≈ 50 µg/mL) | 20.7 µM (≈ 50 µg/mL) |
| CN[C@@H]1[C@H](O[C@H]2[C@H](O[C@H]3[C@H](O)[C@@H](O)[C@H](N=C(N)N)[C@@H](O)[C@@H]3N=C(N)N)O[C@@H](C)[C@]2(O)C=O)O[C@@H](CO)[C@H](O)[C@H]1O [STREPTOMYCIN] | 0.8 µM (≈ 0.465 µg/mL) | 3.4 µM (≈ 1.98 µg/mL) |
| CC(=O)NCC(=O)N[C@@H](Cc1ccccc1)C(=O)NC1(C(=O)NCC(=O)NC2(C(=O)NC(CCN)C(=O)NC3(C(=O)NCC(=O)NC4(C(=O)N[C@@H](Cc5ccccc5)C(=O)NC5(C(=O)NCC(=O)NC6(C(=O)NCC(=O)NC(CCN)C(=O)NC7(C(=O)NC(CCN)C(=O)NC(CCN)C(=O)NC(CCN)C(=O)NC(CCN)C(N)=O)CCCCC7)CCCCC6)CCCCC5)CCCCC4)CCCCC3)CCCCC2)CCCCC1 (some centres undefined) (Ac-GF[Ac6c]G[Ac6c][ξDab][Ac6c]G[Ac6c]F[Ac6c]G[Ac6c]G[ξDab][Ac6c][ξDab][ξDab][ξDab][ξDab]-NH2) | 25.6 µM (≈ 54.3 µg/mL) | 25.6 µM (≈ 54.3 µg/mL) |
